How the values were obtained:
[1] = system: GNF156R (PfCARL L830V, S1076I and M81I, parent Dd2); assay: Cross-resistance EC50 assay, GNF156R; assay type: cell-based; settings: Plasmodium falciparum, SYBR green 72 hour assay, asynchronized parasites, 96-well or 1536-well format
Description: (§1) To evaluate potential overlapping activity against known antimalarial drug targets, we performed dose-response studies with each compound against our assembled set of drug-resistant lines and their corresponding parents, in an asexual blood stage proliferation assay (Table 1). Comparisons were made to the drug-sensitive strain 3D7 when a parent was unavailable (TM90C2A, W2 and Dd2). As laboratories conducted EC50 assays with different strains and protocols, all comparisons were made between assays from the same laboratory and under the same assay conditions. Compounds displaying >5-fold EC50 shifts relative to the parent or sensitive strain were flagged as having potentially non-novel targets. Average fold shifts per strain ranged from 0.82 to 2.34, with a median of 1.23 indicating there was not common resistance to any one resistant clone. No resistance patterns were observed when classifying the compounds based on chemical structure, but this was not surprising given the diversity of compounds chosen. On the other hand, given that these confirmed compounds were derived from larger unconfirmed hit lists to which some filtration criteria may have been applied (for example, elimination of obvious dihydrofolate reductase inhibitors[32]), some[10][11][12][13] pre-existing bias may exist in the set. […]
(§2) Alternatively, a SYBR Green-based proliferation approach was used for the 72-h assay, as previously described. Briefly, a culture of either synchronized or asynchronous parasitized RBCs (0.3% parasitemia and 4% haematocrit) in screening medium (identical to supplemented medium above except no serum was added) was exposed to serial drug dilutions. Plates were incubated at 37 °C and gassed with 93% N2, 4% CO2 and 3% O2 for 72 h. Following incubation, 10 × SYBR Green I (Invitrogen; supplied in 10,000 × concentration) in lysis buffer ([…], 5 mM EDTA, 0.16% Saponin wt per vol and 1.6% Triton X vol per vol) was added to the wells and the plates were incubated overnight at room temperature before plate reading. EC50 assays were repeated three times, taking the average EC50 value from each assay set, and removing any outliers using a single iteration of Grubbs' test, eliminating values with z-scores above the critical z-value (α=0.05). The raw EC50 values for synchronized parasites assayed in a 384-well format are listed in Supplementary Data 4. The raw EC50 values for asynchronous parasites assayed in a 96 or 1536-well format are listed in Supplementary Data 5.
(§3) EC50 values for each strain were compared with those of the corresponding parent strain to determine fold-shift changes and identify resistance. To minimize the cause variance between assays, all comparisons were conducted between strains assayed under identical conditions. A one-way ANOVA followed by a Dunnet's post-test was conducted in GraphPad Prism to identify significant changes between the parent and resistant strain.

[2] = system: P. falciparum strain 3D7; assay: Asexual blood stage 3H-hypoxanthine incorporation assay, 3D7; assay type: cell-based, Plasmodium falciparum; settings: Plasmodium falciparum, 3D7, asexual stage, P. falciparum 3D7; read-out: 3D7 EC50
Description: The 48-h assay was carried out in a 96-well format following standard methods using the ^3H-hypoxanthine incorporation assay. The raw EC50 values corresponding to this assay can be found in Supplementary Data 3. Briefly, this assay relies on the parasite incorporation of labelled hypoxanthine that is proportional to P. falciparum growth. A culture of parasitized RBCs (0.5% parasitemia with a percentage of ring stage higher than 70% of total parasitemia, 2.0% haematocrit) in RPMI-1640, […] and 5 μM hypoxanthine was exposed to drug serial dilutions. Plates were incubated for 24 h at 37 °C, 5% CO2, 5% O2 and 90% N2. After 24 h of incubation, ^3H-hypoxanthine was added and plates were incubated for an additional 24-h period. After that, parasites were harvested on a glass fibre filter using a TOMTEC Cell Harvester 96. Filters were dried and melt-on scintillator sheets were used to determine the incorporation of ^3H-hypoxanthine. Radioactivity was measured using a microbeta counter. Data were normalized using the incorporation of the positive (parasitized RBCs without drug) and negative (same culture with artesunate at 2 μM) controls. All assays were conducted in triplicate using three independently grown cultures, and EC50 values were determined using the XLfit add-in module for Excel (version 2.3.1) from Grafit (version 5.3.1.3), where parameter h is the assay hill slope, x is the compound concentration and y is the inhibition of growth effect. The XLfit equation is: […]

[3] = system: CYTb-G131S (cytb G131S, parent Dd2); assay: Cross-resistance EC50 assay, CYTb-G131S; assay type: cell-based, Plasmodium falciparum; settings: for EC50: Plasmodium falciparum, SYBR green 72 hour assay, synchronized parasites, 384-well format
Description: as §1, §2, §3

[4] = system: ProRS (prolyl t-RNA synthetase L482H, parent Dd2); assay: Cross-resistance EC50 assay, ProRS; assay type: cell-based; settings: Plasmodium falciparum, SYBR green 72 hour assay, synchronized parasites, 384-well format
Description: as §1, §2, §3

[5] = system: Stage 5 gametocytes from P. falciparum NF54; assay: Late-stage (stage V) gametocyte survival assay, MitoTracker; assay type: cell-based, Plasmodium falciparum; settings: for EC50: Plasmodium falciparum, P. falciparum NF54, 72 h, read-out: Stage 5 Gametocyte EC50; for EC50 fold shift compared to asexual stage: Stage 5 Gametocyte EC50: gametocyte EC50 / 3D7 EC50
Description: The second assay was a late-stage (stage V) gametocyte survival assay, which predicts transmission-blocking activity. […] Positive and negative control compounds included puromycin (0.61±0.11 μM) and atovaquone (> 12.50 μM), respectively.
To test sexual-stage activity, compounds were tested against late-stage gametocytes using a MitoTracker fluorescent-based assay. Specifically, synchronized stage V gametocytes were incubated with compound for 72 h. MitoTracker Red CMXRos (Life Technologies) was added to each well (final concentration: 500 nM) together with saponin to lyse the RBCs. Each plate was then imaged with an Operetta High Content Imaging System (Perkin Elmer) for fluorescence (590–640 nm). Varying levels of compound concentration were used (1.25 μM or 12.5 μM) due to the stock concentration supplied.
The gametocytocidal activity was measured using high-content image analysis software (Harmony, Perkin Elmer). The readout was based on number of metabolically active gametocytes per well.

[6] = system: CYTbQi (cytb G33A, parent Dd2); assay: Cross-resistance EC50 assay, CYTbQi; assay type: cell-based; settings: Plasmodium falciparum, SYBR green 72 hour assay, synchronized parasites, 384-well format
Description: as §1, §2, §3

| Structure (SMILES) | EC50 [1] [µM] | EC50 [2] [nM] | EC50 ([3]; DD2, CYTb:G131S strain) [nM] | EC50 ([4]; DD2, ProRS strain) [nM] | EC50 [5] [nM] | EC50 fold shift compared to asexual stage: Stage 5 Gametocyte EC50 [5] | EC50 ([6]; DD2, CYTbQi strain) [nM] | EC50 ([3]; strain CYTb:G131S (Dd2 parent)) [nM] | EC50 ([4]; strain ProRS (Dd2 parent)) [nM] | EC50 ([6]; strain CYTbQi (Dd2 parent)) [nM] | fold change in EC50, CYTb-G131S vs parent ([3]; resistance, parent Dd2) [fold] |
| --- | --- | --- | --- | --- | --- | --- | --- | --- | --- | --- | --- |
| COc1ccc(NC(=O)N2CCCCN3[C@H](CN)[C@H](c4ccc(C#Cc5ccccc5)cc4)[C@@H]3C2)cc1 [BRD1095] | 0.00166 | 40 | 24 | 17 | 259 | 6.48 | 18 |  |  |  |  |
| CCN(CC)CCn1c(=N)n(CC(O)c2ccc(Cl)c(Cl)c2)c2ccccc21.Cl (centres unmarked) [MMV000248] | 0.432 | 306 |  |  | 1600 | 5.23 |  | 367 | 360 | 340 |  |
| CCOc1cc2c(cc1OCC)C(c1cc(Cl)ccc1O)NCC2 (centres unmarked) [MMV000478] | 0.764 | 1070 |  |  | > 1250 | > 1.25 |  | 1370 | 622 | 817 |  |
| CCCOCc1cc(CN2CCN(c3cccc(Cl)c3)CC2)c(O)c2ncccc12 [MMV000787] | 1.63 | 942 |  |  | 5670 |  |  | 632 | 484 | 520 |  |
| CN1CCN(c2ccc(Nc3c4ccccc4nc4ccccc34)cc2)CC1 [MMV006172] | 0.32 | 95 |  |  | 919 |  |  | 171 | 125 | 107 |  |
| CCCN(CCC)CC(O)COc1ccccc1C(=O)Nc1ccccc1 (centres unmarked) [MMV006455] | 0.083 | 530 |  |  | > 1250 | > 2.3 |  | 319 | 897 | 200 |  |
| COc1cc2cc(C(=O)Nc3ccccc3)c(N)nc2cc1OC [MMV006767] | 0.379 | 960 |  |  | > 12500 |  |  | 1800 | 1730 | 1930 |  |
| Cc1cc(Nc2ccc(OCc3ccccc3)cc2)nc2cc(O)ccc12 [MMV007181] | 0.163 | 346 |  |  | 805 | 2.33 |  | 245 | 105 | 144 |  |
| Brc1ccc(Nc2nc3ccccc3nc2Nc2ccc(Br)cc2)cc1 [MMV007224] | 0.712 | 222 |  |  | 2520 | 11.35 |  | 285 | 298 | 327 |  |
| Cc1ccc(Cn2c(N3CCC(C(=O)NCc4cccs4)CC3)nc3ccccc32)cc1 [MMV007564] | 1.62 | 580 |  |  | 2210 | 3.81 |  | 1300 | 416 | 574 |  |
| Cc1c(C)n(Cc2ccc(F)cc2)c2ccc(C(=O)NCc3ccco3)cc12 [MMV008149] | 0.798 | 770 |  |  | > 1250 | 1.62 |  | > 5000 | 67 | 87 | > 38 |
| OC(CNC1CCCCC1)Cn1c2ccccc2c2ccccc21 (centres unmarked) [MMV009063] | 0.095 | 790 |  |  | > 1250 | > 1.5 |  | 412 | 144 | 257 |  |
| CCN(CC)S(=O)(=O)c1ccc(-c2csc(Nc3ccc(C)c(C)c3)n2)cc1 [MMV009108] | 1.5 | 930 |  |  | 921 | 0.99 |  | 494 | 373 | 416 |  |
| Cc1nc2ccc3ccc(CNc4ccc(C(=O)CC(CCC(=O)O)C(=O)O)cc4)cc3c2c(=O)[nH]1.Cl (centres unmarked) [MMV027634] | 0.229 | 23 |  |  | > 12500 | > 543 |  | 52 |  | 42 |  |
| CN(C)CCCN(C)C(=O)C1Cc2cc(-c3ccccc3)ccc2N1S(=O)(=O)c1ccccc1 (centres unmarked) [MMV028895] | 3.92 |  |  |  |  |  |  | 390 | 371 | 740 |  |
| c1cncc(-c2cc(N3CCC(CN4CCOCC4)CC3)nc(-c3ccncc3)n2)c1 [MMV668399] | 0.827 | 83 |  |  | > 12500 |  |  | 137 |  | 162 |  |
| COc1ccc2c3c([nH]c2c1)[C@H](CO)N(C(C)=O)CC31CCN(C(=O)Nc2ccccc2F)CC1 [MMV673482] |  |  | 182 | 94 |  |  | 84 |  |  |  |  |

Reference: publication PMC4912613, “A broad analysis of resistance development in the malaria parasite” (Nature Communications, 2016)
